# Measured values taken from ChEMBL document CHEMBL4400519, “Indazolylketones as new multitarget cannabinoid drugs” (Eur J Med Chem, 2019).
# pIC50: −log10 of the molar value. Active and inactive are the calls of the source. The calls are words filed in the database; no cut-off is given here.
# Assays:
# [1] = molecular target: T1, Cannabinoid receptor (Mus musculus) (UniProt P47746+P47936); test: Agonist activity at cannabinoid receptor in ICR mouse vas deferens assessed as inhibition of electrically induced contractions at 3 x 10^-7 M after 10 mins in presence of CB1 antagonist AM251 relative to control; format: protein assay
# T1 sequence (P47746 whole entry, looked up): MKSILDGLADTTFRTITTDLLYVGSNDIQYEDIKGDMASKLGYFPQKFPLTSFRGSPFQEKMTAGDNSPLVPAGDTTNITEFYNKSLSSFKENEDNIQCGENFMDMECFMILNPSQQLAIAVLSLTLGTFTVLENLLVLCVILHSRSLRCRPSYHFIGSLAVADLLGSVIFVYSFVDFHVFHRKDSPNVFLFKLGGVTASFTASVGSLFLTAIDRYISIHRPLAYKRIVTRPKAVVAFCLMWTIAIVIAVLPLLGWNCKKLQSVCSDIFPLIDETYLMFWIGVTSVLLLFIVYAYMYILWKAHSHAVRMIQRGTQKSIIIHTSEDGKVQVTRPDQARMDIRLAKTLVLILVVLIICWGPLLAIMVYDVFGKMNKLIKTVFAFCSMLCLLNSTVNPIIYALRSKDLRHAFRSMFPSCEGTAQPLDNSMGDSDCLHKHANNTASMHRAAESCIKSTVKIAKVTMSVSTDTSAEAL
# T1 sequence (P47936 whole entry, looked up): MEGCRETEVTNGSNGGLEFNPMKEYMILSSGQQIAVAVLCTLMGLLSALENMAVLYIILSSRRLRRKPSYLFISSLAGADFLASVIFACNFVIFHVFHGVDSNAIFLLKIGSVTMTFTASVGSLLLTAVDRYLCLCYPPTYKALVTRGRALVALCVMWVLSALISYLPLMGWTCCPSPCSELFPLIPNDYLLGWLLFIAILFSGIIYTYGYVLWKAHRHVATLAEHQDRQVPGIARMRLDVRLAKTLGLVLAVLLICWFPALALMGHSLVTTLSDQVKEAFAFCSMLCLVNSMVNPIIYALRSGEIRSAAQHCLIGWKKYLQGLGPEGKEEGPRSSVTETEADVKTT
# [2] = molecular target: T1, Cannabinoid receptor (Mus musculus); test: Agonist activity at cannabinoid receptor in ICR mouse vas deferens assessed as inhibition of electrically induced contractions at 2.7 x 10^-6 M after 10 mins in presence of CB2 antagonist AM630 relative to control; format: protein assay
# [3] = molecular target: T1, Cannabinoid receptor (Mus musculus); test: Agonist activity at cannabinoid receptor in ICR mouse vas deferens assessed as inhibition of electrically induced contractions at 2.7 x 10^-6 M after 10 mins relative to control; format: protein assay
# [4] = molecular target: Beta-secretase 1 (Homo sapiens) (UniProt P56817); test: Inhibition of human BACE1 at 10 uM incubated for 60 mins using rhodamine-EVNLDAEFK-quencher substrate by FRET assay
# Beta-secretase 1 (Homo sapiens), sequence (P56817 whole entry): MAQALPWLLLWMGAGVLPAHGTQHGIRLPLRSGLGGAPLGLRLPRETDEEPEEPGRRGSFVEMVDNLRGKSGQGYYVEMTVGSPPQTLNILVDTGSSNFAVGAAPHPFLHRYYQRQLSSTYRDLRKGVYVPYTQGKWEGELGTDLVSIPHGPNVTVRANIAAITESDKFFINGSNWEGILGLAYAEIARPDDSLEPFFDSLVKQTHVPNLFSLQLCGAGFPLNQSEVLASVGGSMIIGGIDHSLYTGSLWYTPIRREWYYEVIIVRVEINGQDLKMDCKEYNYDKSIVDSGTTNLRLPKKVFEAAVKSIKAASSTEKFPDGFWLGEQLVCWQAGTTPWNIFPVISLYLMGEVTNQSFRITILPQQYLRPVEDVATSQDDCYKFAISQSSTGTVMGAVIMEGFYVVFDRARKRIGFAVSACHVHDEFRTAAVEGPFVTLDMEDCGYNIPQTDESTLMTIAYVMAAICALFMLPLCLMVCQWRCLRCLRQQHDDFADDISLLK
# [5] = molecular target: T1, Cannabinoid receptor (Mus musculus); test: Agonist activity at cannabinoid receptor in ICR mouse vas deferens assessed as inhibition of electrically induced contractions at 3 x 10^-7 M after 10 mins relative to control; format: protein assay
# [6] = molecular target: T1, Cannabinoid receptor (Mus musculus); test: Agonist activity at cannabinoid receptor in ICR mouse vas deferens assessed as inhibition of electrically induced contractions at 1.82 x 10^-5 M after 10 mins in presence of CB1 antagonist AM251 relative to control; format: protein assay
# Acetylcholinesterase [7] = molecular target: T2, Acetylcholinesterase (Homo sapiens, UniProt P22303); test: Inhibition of human erythrocyte AChE at 10 uM using acetylthiocholine as substrate by Ellman's assay
# T2 sequence (P22303 whole entry): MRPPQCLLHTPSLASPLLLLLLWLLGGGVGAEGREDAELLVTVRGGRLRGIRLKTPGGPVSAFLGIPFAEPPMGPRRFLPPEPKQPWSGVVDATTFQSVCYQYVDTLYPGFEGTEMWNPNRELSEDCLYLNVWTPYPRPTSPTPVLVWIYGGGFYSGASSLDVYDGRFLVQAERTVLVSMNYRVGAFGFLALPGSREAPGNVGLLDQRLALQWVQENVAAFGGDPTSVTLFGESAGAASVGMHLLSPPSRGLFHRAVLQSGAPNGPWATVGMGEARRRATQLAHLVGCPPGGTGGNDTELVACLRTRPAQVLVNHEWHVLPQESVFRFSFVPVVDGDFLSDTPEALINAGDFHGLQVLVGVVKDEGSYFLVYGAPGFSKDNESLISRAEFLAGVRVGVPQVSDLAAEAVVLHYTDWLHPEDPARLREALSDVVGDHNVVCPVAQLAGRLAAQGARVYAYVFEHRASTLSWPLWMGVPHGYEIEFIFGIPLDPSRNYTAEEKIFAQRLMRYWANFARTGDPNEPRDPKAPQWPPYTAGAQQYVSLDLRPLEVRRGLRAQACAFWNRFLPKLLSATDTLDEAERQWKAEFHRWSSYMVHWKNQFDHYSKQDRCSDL
# [8] = molecular target: T1, Cannabinoid receptor (Mus musculus); test: Agonist activity at cannabinoid receptor in ICR mouse vas deferens assessed as inhibition of electrically induced contractions at 9 x 10^-7 M after 10 mins relative to control; format: protein assay
# [9] = molecular target: T1, Cannabinoid receptor (Mus musculus); test: Agonist activity at cannabinoid receptor in ICR mouse vas deferens assessed as inhibition of electrically induced contractions at 10^-7 M after 10 mins relative to control; format: protein assay
# [10] = molecular target: T1, Cannabinoid receptor (Mus musculus); test: Agonist activity at cannabinoid receptor in ICR mouse vas deferens assessed as inhibition of electrically induced contractions at 10^-7 M after 10 mins in presence of CB2 antagonist AM630 relative to control; format: protein assay
# [11] = molecular target: T1, Cannabinoid receptor (Mus musculus); test: Agonist activity at cannabinoid receptor in ICR mouse vas deferens assessed as inhibition of electrically induced contractions at 3 x 10^-7 M after 10 mins in presence of CB2 antagonist AM630 relative to control; format: protein assay
# [12] = molecular target: T1, Cannabinoid receptor (Mus musculus); test: Agonist activity at cannabinoid receptor in ICR mouse vas deferens assessed as inhibition of electrically induced contractions at 9 x 10^-7 M after 10 mins in presence of CB2 antagonist AM630 relative to control; format: protein assay
# [13] = molecular target: T1, Cannabinoid receptor (Mus musculus); test: Agonist activity at cannabinoid receptor in ICR mouse vas deferens assessed as inhibition of electrically induced contractions at 8.1 x 10^-6 M after 10 mins in presence of CB2 antagonist AM630 relative to control; format: protein assay
# [14] = molecular target: T1, Cannabinoid receptor (Mus musculus); test: Agonist activity at cannabinoid receptor in ICR mouse vas deferens assessed as inhibition of electrically induced contractions at 8.1 x 10^-6 M after 10 mins relative to control; format: protein assay
# [15] = molecular target: T1, Cannabinoid receptor (Mus musculus); test: Agonist activity at cannabinoid receptor in ICR mouse vas deferens assessed as inhibition of electrically induced contractions at 10^-7 M after 10 mins in presence of CB1 antagonist AM251 relative to control; format: protein assay
# [16] = molecular target: T1, Cannabinoid receptor (Mus musculus); test: Agonist activity at cannabinoid receptor in ICR mouse vas deferens assessed as inhibition of electrically induced contractions at 2.7 x 10^-6 M after 10 mins in presence of CB1 antagonist AM251 relative to control; format: protein assay
# [17] = molecular target: T1, Cannabinoid receptor (Mus musculus); test: Agonist activity at cannabinoid receptor in ICR mouse vas deferens assessed as inhibition of electrically induced contractions at 9 x 10^-7 M after 10 mins in presence of CB1 antagonist AM251 relative to control; format: protein assay
# [18] = molecular target: T1, Cannabinoid receptor (Mus musculus); test: Agonist activity at cannabinoid receptor in ICR mouse vas deferens assessed as inhibition of electrically induced contractions at 1.82 x 10^-5 M after 10 mins in presence of CB2 antagonist AM630 relative to control; format: protein assay
# Cholinesterase = Cholinesterase (Homo sapiens, UniProt P06276); test: Inhibition of human serum BChE using butyrylthiocholine as substrate by Ellman's assay
# Cholinesterase, sequence (P06276 whole entry): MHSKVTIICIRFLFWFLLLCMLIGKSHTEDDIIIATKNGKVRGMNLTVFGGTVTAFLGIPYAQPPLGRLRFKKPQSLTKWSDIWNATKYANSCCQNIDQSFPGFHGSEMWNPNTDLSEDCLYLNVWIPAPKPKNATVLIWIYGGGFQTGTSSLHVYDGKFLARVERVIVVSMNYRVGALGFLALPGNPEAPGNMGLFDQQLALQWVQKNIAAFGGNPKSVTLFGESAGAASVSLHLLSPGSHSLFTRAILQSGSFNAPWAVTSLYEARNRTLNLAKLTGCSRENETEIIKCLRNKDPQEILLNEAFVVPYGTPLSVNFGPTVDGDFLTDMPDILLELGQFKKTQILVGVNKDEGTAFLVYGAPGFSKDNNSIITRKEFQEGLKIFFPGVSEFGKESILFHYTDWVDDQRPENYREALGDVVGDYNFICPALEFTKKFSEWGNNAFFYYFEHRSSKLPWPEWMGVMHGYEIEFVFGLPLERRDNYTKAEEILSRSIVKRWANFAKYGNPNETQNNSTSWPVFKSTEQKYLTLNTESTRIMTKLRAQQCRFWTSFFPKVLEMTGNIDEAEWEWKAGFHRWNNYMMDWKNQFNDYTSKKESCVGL
# Acetylcholinesterase [19] = molecular target: T2, Acetylcholinesterase; test: Inhibition of human erythrocyte AChE using acetylthiocholine as substrate by Ellman's assay
# [20] = Antioxidant activity assessed as trolox equivalent of APPH-induced radical scavenging activity by ORAC-FL assay; format: functional
# [21] = molecular target: T1, Cannabinoid receptor (Mus musculus); test: Agonist activity at cannabinoid receptor in ICR mouse vas deferens assessed as inhibition of electrically induced contractions at 8.1 x 10^-6 M after 10 mins in presence of CB1 antagonist AM251 relative to control; format: protein assay
# [22] = molecular target: T1, Cannabinoid receptor (Mus musculus); test: Agonist activity at cannabinoid receptor in ICR mouse vas deferens assessed as inhibition of electrically induced contractions at 1.82 x 10^-5 M after 10 mins relative to control; format: protein assay
Structure (SMILES),inhibition [1],inhibition [2],inhibition [3],inhibition [4],inhibition [5],inhibition [6],inhibition [8],inhibition [9],inhibition [10],inhibition [11],inhibition [12],inhibition [13],inhibition [14],inhibition [15],inhibition [18],pIC50 (Cholinesterase),pIC50 (Acetylcholinesterase [19]),Activity [20],inhibition [21],inhibition [22],other results
O=C(c1cccc2ccccc12)n1nc(OCCCN2CCCCC2)c2ccccc21,-5%,14.2%,16%,42%,3%,18.4%,7.9%,1%,-8.2%,-5.4%,0.1%,41%,31.5%,-6.4%,56.7%,10.15,< 5.00,inactive,2.7%,55.9%,inhibition (Acetylcholinesterase [7]): 43%; inhibition [16]: -2.4%; inhibition [17]: -3.7%
O=C(c1cccc2ccccc12)n1nc(OCCCN2CCCC2)c2ccccc21,-8.6%,15.2%,11.3%,20%,0.5%,88.4%,3.2%,-2%,-2.7%,-0.9%,4%,68.7%,56.1%,-6.7%,89.5%,9.82,< 5.00,inactive,57.9%,87.4%,inhibition (Acetylcholinesterase [7]): 35%; inhibition [16]: 5.7%; inhibition [17]: -7.2%
O=C(c1c(F)ccc(F)c1F)n1nc(OCCN2CCCCC2)c2ccccc21,-3.5%,12.8%,40.6%,14.3%,9.2%,37.1%,20.8%,4.8%,-3.3%,-1.7%,4.4%,32.3%,60.9%,-5.3%,49.1%,5.03,5.03,inactive,23.6%,73.2%,inhibition [16]: 10.4%; inhibition [17]: 6.7%
O=C(c1cccc2ccccc12)n1nc(OCCN2CCCCC2)c2ccccc21,,15.7%,28.6%,11%,1.4%,73.3%,8.6%,-0.7%,-8.6%,-7.9%,-2.6%,73.6%,69.2%,-7.7%,92%,9.59,< 5.00,inactive,27.8%,93.7%,inhibition (Acetylcholinesterase [7]): 37%
O=C(c1ccccc1OCc1ccccc1)n1nc(OCCN2CCCC2)c2ccccc21,-0.5%,10.3%,10.4%,32%,3.7%,71.2%,7.7%,1.2%,-4%,-1.6%,2.7%,47.2%,32.5%,-1.9%,76.7%,6.41,< 5.00,inactive,38.8%,68.1%,inhibition [16]: 5.9%; inhibition [17]: 1.3%
O=C(c1cccc(Cl)c1Cl)n1nc(OCCN2CCCCC2)c2ccccc21,-0.9%,8.6%,29.4%,18.1%,3.8%,43.4%,15.6%,1.3%,-1.2%,-1.3%,2.4%,60.2%,80.5%,-1.8%,78.2%,6.22,4.98,inactive,23.5%,87.2%,inhibition [16]: 3.1%; inhibition [17]: 1%
